Laboratory results taken from US11938190B2, “Herbal extracts for treatment of herpesvirus infections” (KAMEDIS LTD., priority 2018, dated 2024).
≈ marks a conversion by molar mass, not a printed value.

Tested on: Herpes Simplex Virus type 1 (HSV-1)
Test: microbe, parasite or virus in culture
Assay type: cell-based
Conditions: Human alphaherpesvirus 1; Example 2; acyclovir dose-response curve; EYFP-HSV-1, Vero cells

In the case of `Nc1nc2c(ncn2COCCO)c(=O)[nH]1` [Acyclovir], the IC50 is reported as 0.126 ± 0.014 µg/mL (≈ 0.559 µM).
